Read-outs that look alike come from different tables or passages of the source. Peptide text beside a SMILES is read from it.
Assays:
[1] = target: T1, ARHGEF30 (OBSCN) SH3 domain (aa 5600-5667) (Homo sapiens, UniProt Q5VST9); assay: Fluorescence polarization SH3 domain-PRP binding; details: FP, 0.2 µM fluorescein-labeled peptide, SH3 domain 0-200 µM, Tris/HCl pH 7.5, 25 °C, quadratic fit
T1 construct: 5600-5667; GST (N); made in house; host or cells: Escherichia coli CodonPlus, Rosetta, BL21(DE3)
T1 sequence (Q5VST9 5600-5667): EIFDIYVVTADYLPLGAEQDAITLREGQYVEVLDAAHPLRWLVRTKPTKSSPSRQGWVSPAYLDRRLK
Protocol: (§1) The interaction between fluorescein-labeled proline-rich peptides (0.2 µM) and increasing concentrations of SH3 domains (ranging from 0 to 200 µM) was measured in a buffer (containing 30 mM Tris/HCl (pH 7.5), 5 mM MgCl2, and 3 mM DTT at 25 °C) in a total volume of 200 µL using a Fluoromax 4 fluorimeter in polarization mode and a quartz glass fluorescence cuvette (Hellma Ultra-Micro Cuvette 105.250-QS, Thermo Fisher Scientific, Waltham, MA USA). Excitation was performed at 470 nm and emission was measured at 560 nm. Dissociation constants (Kd) were determined by fitting the concentration-dependent binding curve to a quadratic ligand binding equation.
Fluorescence polarization measurements were performed to determine the binding affinities of SH3 domain–PRP interaction pairs from the dot blot analysis. SH3 proteins were titrated at increasing concentrations against fluorescent PRPs, which were kept at a constant concentration of 0.2 µM. GRB2-2^W193K, which is defective in the binding of PRPs such as RP1, was used as a negative control as previously described. […] The resulting data (Figure S6) allowed the evaluation of equilibrium dissociation constants (Kd) for 45 interactions between the SH3 domains and the PRPs (Figure 2B; Table S6).
Figure S6. Interactions of the SH3 domains with fluorescent PRPs measured by fluorescence polarization.
Fluorescent peptides (0.2 µM) were titrated with increasing concentrations of the corresponding SH3 domains.
GRB2-2W193K, defective in the binding of PRPs such as RP1, was used as a negative control as previously described. The x-axis represents SH3 domain concentrations as GST fusion proteins in µM, while the y-axis represents fluorescence polarization. The equilibrium dissociation constants (Kd) for the respective measurements were determined by fitting the titration curves to a quadratic ligand-binding equation (solid lines). All Kd values are […]
Error bars are derived from the fitting errors.
(§2) (1 picture or pasted object on this page, not shown here)

[2] = target: T2, ARHGAP12Set-1 (K28S, R30N, F62G, Y63W) SH3 domain (Homo sapiens, UniProt Q8IWW6, F62G/K28S/R30N/Y63W); assay: Fluorescence polarization, SH3 domain mutant; type: binding; details: ARHGAP12 Set-1 mutant; FP, 0.2 µM fluorescent peptide, quadratic fit
T2 construct: 12-74; GST (N); made in house; host or cells: Escherichia coli (CodonPlus, Rosetta, BL21(DE3)), pGEX4-T1
T2 sequence (Q8IWW6 12-74 K28S/R30N/F62G/Y63W): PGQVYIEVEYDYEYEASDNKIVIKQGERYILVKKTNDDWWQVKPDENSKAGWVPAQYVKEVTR
Protocol: as §1
(§3) To better understand the role of the residues of SH3 domains in selective binding to PRPs, we have generated a multiple sequence alignment (Figure S7). It highlights the conserved and variable residues that are likely to be critical for the selectivity and affinity of the SH3 domain–PRM interactions. […] Two different sets of mutations were generated by substituting a combination of amino acids from ARHGAP12 and NCK1-3 for ABL2 and BIN1 and vice versa (Figure 3A; Table S1).
(§4) Figure S8. Mutational analysis of the SH3-fluorescent PRPs interactions using fluorescence polarization.
(§5) Fluorescent peptides (0.2 µM) were titrated with increasing concentrations of the corresponding SH3 domain mutants (see Figure 3A and Table S1). The x-axis represents SH3 domain concentrations as GST fusion proteins in µM, while the y-axis represents fluorescence polarization. The equilibrium dissociation constants (Kd) for the respective measurements were determined by fitting the titration curves to a quadratic ligand-binding equation […]
(§6) (solid lines). Error bars are derived from the fitting errors.
as §2

[3] = target: T3, NCK1-3Set-2 (N225E, W229G, K244E) SH3 domain (Homo sapiens, UniProt P16333, K244E/N225E/W229G); assay: Fluorescence polarization, SH3 domain mutant; type: binding; details: NCK1-3 Set-2 mutant, FP, 0.2 µM fluorescent peptide, quadratic fit
T3 construct: 190–252; GST (N); made in house; host or cells: Escherichia coli (CodonPlus, Rosetta, BL21(DE3)), pGEX4-T1
Protocol: as §1, §3, §4, §5, §6, §2

How did the Kd [1] turn out when `CC[C@H](C)[C@H](N)C(=O)N[C@@H](CO)C(=O)N[C@@H](CC(=O)O)C(=O)N1CCC[C@H]1C(=O)N1CCC[C@H]1C(=O)N[C@@H](CCC(=O)O)C(=O)N[C@@H](CO)C(=O)N1CCC[C@H]1C(=O)N1CCC[C@H]1C(=O)N[C@@H](CC(C)C)C(=O)N[C@@H](CC(C)C)C(=O)N1CCC[C@H]1C(=O)N1CCC[C@H]1C(=O)N[C@@H](CCCNC(=N)N)C(=O)N[C@@H](CCC(=O)O)C(=O)N1CCC[C@H]1C(=O)N[C@H](C(=O)N[C@@H](CCCNC(=N)N)C(=O)N[C@H](C(=O)N1CCC[C@H]1C(=O)N[C@@H](CC(=O)O)C(=O)N[C@H](C(=O)O)C(C)C)[C@@H](C)O)C(C)C` [Peptide P5] (H-ISDPPESPPLLPPREPVRTPDV-OH) was run?
The Kd was greater than 200 µM.

With `CC(C)[C@H](NC(=O)[C@@H]1CCCN1C(=O)[C@@H]1CCCN1C(=O)[C@H](C)NC(=O)[C@H](CCC(=O)O)NC(=O)[C@H](CS)NC(=O)[C@@H](N)CCCNC(=N)N)C(=O)N1CCC[C@H]1C(=O)N1CCC[C@H]1C(=O)N[C@@H](CCCNC(=N)N)C(=O)N[C@@H](CCCNC(=N)N)C(=O)N[C@@H](CCC(=O)O)C(=O)N[C@@H](CCCNC(=N)N)C(=O)NCC(=O)O` [RP2, reference compound] (H-RCEAPPVPPRRERG-OH) as the compound, how does the Kd [1] read?
The Kd was greater than 200 µM.

Which Kd [1] does the source give for `CC(C)C[C@H](NC(=O)[C@H](Cc1c[nH]cn1)NC(=O)[C@H](CC(C)C)NC(=O)[C@@H]1CCCN1C(=O)[C@H](CO)NC(=O)[C@H](CO)NC(=O)[C@@H](N)CO)C(=O)N[C@@H](CCC(N)=O)C(=O)N1CCC[C@H]1C(=O)N1CCC[C@H]1C(=O)N1CCC[C@H]1C(=O)N[C@@H](CC(C)C)C(=O)NCC(=O)N[C@@H](CCCCN)C(=O)N[C@@H](CCCCN)C(=O)O` [Peptide P6] (H-SSSPLHLQPPPLGKK-OH; N-terminus and C-terminus assumed) here?
The Kd was greater than 200 µM.

Which Kd [1] does the source give for `CC(C)C[C@H](NC(=O)[C@@H]1CCCN1C(=O)[C@@H]1CCCN1C(=O)[C@H](CO)NC(=O)[C@@H]1CCCN1C(=O)[C@H](CC(C)C)NC(=O)[C@H](Cc1c[nH]cn1)NC(=O)[C@@H](N)CCCNC(=N)N)C(=O)N[C@H](C(=O)N[C@@H](CCC(N)=O)C(=O)O)[C@@H](C)O` [Peptide P8] (H-RHLPSPPLTQ-OH; N-terminus and C-terminus assumed) here?
Its Kd is greater than 200 µM.

How did the Kd [1] turn out when `CC(C)[C@H](N)C(=O)N1CCC[C@H]1C(=O)N[C@H](C(=O)N1CCC[C@H]1C(=O)N1CCC[C@H]1C(=O)N1CCC[C@H]1C(=O)N[C@H](C(=O)N1CCC[C@H]1C(=O)N1CCC[C@H]1C(=O)N[C@@H](CCCNC(=N)N)C(=O)N[C@@H](CCCNC(=N)N)C(=O)N[C@@H](CCCNC(=N)N)C(=O)O)C(C)C)C(C)C` [RP1, reference compound] was run?
Its Kd is greater than 200 µM.

`CC[C@H](C)[C@H](NC(=O)[C@H](CCCCN)NC(=O)[C@H](CO)NC(=O)[C@@H]1CCCN1C(=O)[C@H](CO)NC(=O)[C@H](CO)NC(=O)[C@H](CCC(=O)O)NC(=O)[C@H](C)NC(=O)[C@@H]1CCCN1C(=O)[C@H](C)NC(=O)[C@H](CO)NC(=O)[C@H](CCC(=O)O)NC(=O)[C@@H]1CCCN1C(=O)[C@H](CCCNC(=N)N)NC(=O)[C@H](CCCNC(=N)N)NC(=O)[C@H](CCCNC(=N)N)NC(=O)[C@@H]1CCCN1C(=O)[C@@H]1CCCN1C(=O)[C@@H](NC(=O)[C@@H]1CCCN1C(=O)[C@@H]1CCCN1C(=O)[C@@H]1CCCN1C(=O)[C@@H](NC(=O)[C@@H]1CCCN1C(=O)[C@@H](NC(=O)[C@@H](N)CCC(=O)O)C(C)C)C(C)C)C(C)C)C(=O)O` [Peptide P3] (H-EVPVPPPVPPRRRPESAPAESSPSKI-OH) was tested. Which Kd [1] did it give?
Its Kd is greater than 200 µM.

With `CC(C)C[C@H](NC(=O)[C@@H](NC(=O)[C@@H](N)C(C)C)[C@@H](C)O)C(=O)N1CCC[C@H]1C(=O)N[C@@H](Cc1c[nH]cn1)C(=O)NCC(=O)N1CCC[C@H]1C(=O)N[C@@H](CCCNC(=N)N)C(=O)N[C@@H](CO)C(=O)N[C@@H](C)C(=O)O` [Peptide P2] (H-VTLPHGPRSA-OH) as the compound, how does the Kd [1] read?
The Kd was greater than 200 µM.

With `CC(C)C[C@H](NC(=O)[C@@H]1CCCN1C(=O)[C@@H](NC(=O)[C@H](CCCNC(=N)N)NC(=O)[C@@H]1CCCN1C(=O)[C@H](CO)NC(=O)[C@H](CC(N)=O)NC(=O)[C@@H]1CCCN1C(=O)[C@H](C)NC(=O)[C@@H](N)CO)[C@@H](C)O)C(=O)N[C@H](C(=O)N1CCC[C@H]1C(=O)N1CCC[C@H]1C(=O)N1CCC[C@H]1C(=O)N[C@@H](C)C(=O)N[C@@H](CO)C(=O)O)[C@@H](C)O` [Peptide P1] (H-SAPNSPRTPLTPPPAS-OH) as the compound, how does the Kd [1] read?
Its Kd is greater than 200 µM.

`CC[C@H](C)[C@H](NC(=O)[C@H](Cc1c[nH]cn1)NC(=O)[C@@H](N)CCC(N)=O)C(=O)N1CCC[C@H]1C(=O)N[C@@H](CCCCN)C(=O)N[C@@H](CC(C)C)C(=O)N1CCC[C@H]1C(=O)N1CCC[C@H]1C(=O)N[C@@H](CCCCN)C(=O)N[C@H](C(=O)N[C@@H](Cc1ccc(O)cc1)C(=O)O)[C@@H](C)O` [Peptide P10] (H-QHIPKLPPKTY-OH; N-terminus and C-terminus assumed) was tested. Which Kd [1] did it give?
The Kd was greater than 200 µM.

For `C[C@H](N)C(=O)N[C@@H](Cc1ccccc1)C(=O)N[C@@H](Cc1ccccc1)C(=O)N1CCC[C@H]1C(=O)N[C@@H](CC(N)=O)C(=O)N[C@@H](CO)C(=O)N1CCC[C@H]1C(=O)N[C@@H](CO)C(=O)N1CCC[C@H]1C(=O)N[C@@H](Cc1ccccc1)C(=O)N[C@H](C(=O)N1CCC[C@H]1C(=O)N1CCC[C@H]1C(=O)N1CCC[C@H]1C(=O)N1CCC[C@H]1C(=O)N[C@@H](CCC(N)=O)C(=O)N[C@H](C(=O)N1CCC[C@H]1C(=O)N[C@@H](CO)C(=O)N1CCC[C@H]1C(=O)N[C@@H](Cc1c[nH]cn1)C(=O)NCC(=O)N[C@H](C(=O)O)[C@@H](C)O)[C@@H](C)O)[C@@H](C)O` [Peptide P7] (H-AFFPNSPSPFTPPPPQTPSPHGT-OH), which Kd [1] is on record?
Its Kd is 8.9 µM.

And the Kd [2]?
Its Kd is 23 µM.

How did the Kd [1] turn out when `CC[C@H](C)[C@H](N)C(=O)N[C@@H](C)C(=O)NCC(=O)N1CCC[C@H]1C(=O)N1CCC[C@H]1C(=O)N[C@H](C(=O)N1CCC[C@H]1C(=O)N1CCC[C@H]1C(=O)N[C@@H](CCCNC(=N)N)C(=O)N[C@@H](CCC(N)=O)C(=O)N[C@@H](CO)C(=O)O)C(C)C` [Peptide P9] (H-IAGPPVPPRQS-OH) was run?
Its Kd is greater than 200 µM.

And the Kd [3]?
The Kd was “did not differ from the NCK1-3^wt”.

What about the Kd ([3]; read-out: Kd) of the same compound?
The Kd was 800 nM.

`CC[C@H](C)[C@H](NC(=O)[C@H](C)NC(=O)[C@@H]1CCCN1C(=O)[C@@H]1CCCN1C(=O)[C@H](CO)NC(=O)[C@H](CC(=O)O)NC(=O)[C@@H](N)CC(C)C)C(=O)N1CCC[C@H]1C(=O)N1CCC[C@H]1C(=O)N[C@@H](CCCNC(=N)N)C(=O)N[C@@H](CCC(N)=O)C(=O)N1CCC[C@H]1C(=O)N[C@H](C(=O)N[C@@H](CO)C(=O)N[C@@H](CCCCN)C(=O)O)[C@@H](C)O` [Peptide P4] (H-LDSPPAIPPRQPTSK-OH) was tested. Which Kd [1] did it give?
Its Kd is greater than 200 µM.

— publication PMC10814857, “Functional Classification and Interaction Selectivity Landscape of the Human SH3 Domain Superfamily” (Cells, 2024)
